Patent US9278874B2, “Prevention of starch degradation in pulp, paper or board making processes using zinc ions and an oxidizing biocide” (KEMIRA OYJ, priority 2011, dated 2016)

What was measured:
Type in all cases: cell-based
[1] = test system: starch degrading bacteria; experiment: Prevention of starch degradation in head box stock using chlorine dioxide (ClO2) and zinc; remaining starch by iodine staining; settings: for Prevention of starch degradation (in words): 10 mg/l zinc or 5-20 mg/l ClO2 alone; for Starch concentration 4 h: contact time 4 h; for Starch concentration 24 h: contact time 24 h
Method: (§1) Prevention of starch degradation was studied using an oxidizing biocide (chlorine dioxide, ClO2) and zinc. Head box stock from packaging board mill, stored at +4° C. after collecting, was amended with 0.8 g/l cooked starch and incubated overnight at 45° C. with 150 rpm shaking to induce the growth of starch degrading bacteria. The stock was divided into 30 ml portions and appropriate amounts of zinc (Zn^2+ from zinc chloride) and ClO2 were added together with a new starch addition (400 mg/l). After 4 h and 24 h incubation (+45° C., 150 rpm) the remaining starch was quantified using iodine staining (Lugol-solution) at 590 nm. An external standard curve was used to convert absorbance values into starch amounts.

[2] = test system: starch degrading bacteria; experiment: Prevention of starch degradation in head box stock using performic acid (PFA) and zinc; remaining starch by iodine staining; settings: for Prevention of starch degradation (in words): 10 mg/l zinc or 20-120 mg/l PFA alone; for Starch concentration 4 h: contact time 4 h; for Starch concentration 24 h: contact time 24 h
Method: as §1, with “(performic acid, PFA)” for “(chlorine dioxide, ClO2)”, “PFA” for “ClO2”

[3] = test system: starch degrading bacteria; experiment: Prevention of starch degradation in head box stock using monochloramine (MCA) and zinc; remaining starch by iodine staining; settings: for Prevention of starch degradation (in words): 10 mg/l zinc or MCA alone; for Starch concentration 4 h: contact time 4 h; for Starch concentration 24 h: contact time 24 h
Method: as §1, with “(monochloramine, MCA)” for “(chlorine dioxide, ClO2)”, “MCA” for “ClO2”

[4] = test system: starch degrading bacteria; experiment: Prevention of starch degradation in head box stock using glutaraldehyde and zinc; remaining starch by iodine staining; settings: for Prevention of starch degradation (in words): 10 mg/l zinc or 5-30 mg/l glutaraldehyde alone; for Starch concentration 4 h: contact time 4 h; for Starch concentration 24 h: contact time 24 h
Method: as §1, with “a non-oxidizing” for “an oxidizing”, “(glutaraldehyde)” for “(chlorine dioxide, ClO2)”, “glutaraldehyde” for “ClO2”

[5] = PFA 11 mg/l (active ingredient)
[6] = PFA 16 mg/l (active ingredient)
[7] = Zn 10 mg/l (mg Zn2+ per l), 400 mg/l starch added

## [O][Cl+][O-] [ClO2, chlorine dioxide]
[1]; 4 h
  Prevention of starch degradation (in words): prevented most of the starch degradation
[1]; 24 h
  Prevention of starch degradation (in words): did not have marked effect
[1]; ClO2 5 mg/l
  Starch concentration 4 h: 128 mg/L
  Starch concentration 24 h: 5 mg/L
[1]; ClO2 9 mg/l
  Starch concentration 4 h: 153 mg/L
  Starch concentration 24 h: 12 mg/L
[1]; ClO2 14 mg/l
  Starch concentration 4 h: 197 mg/L
  Starch concentration 24 h: 13 mg/L
[1]; ClO2 20 mg/l
  Starch concentration 4 h: 227 mg/L
  Starch concentration 24 h: 19 mg/L

## O=COO [PFA, performic acid]
[2]; 4 h
  Prevention of starch degradation (in words): prevented most of the starch degradation
[2]; 24 h
  Prevention of starch degradation (in words): did not have marked effect
[2]; PFA 3 mg/l (active ingredient)
  Starch concentration 4 h: 114 mg/L
  Starch concentration 24 h: 3 mg/L
[2]; PFA 5 mg/l (active ingredient)
  Starch concentration 4 h: 157 mg/L
  Starch concentration 24 h: 3 mg/L
[2]; [5]
  Starch concentration 4 h: 208 mg/L
  Starch concentration 24 h: 5 mg/L
[2]; [6]
  Starch concentration 4 h: 215 mg/L
  Starch concentration 24 h: 11 mg/L

## [Cl-].[Cl-].[Zn+2] [Zn, zinc chloride]
[3]; 4 h
  Prevention of starch degradation (in words): prevented most of the starch degradation
[3]; 24 h
  Prevention of starch degradation (in words): did not have any effect
[3]; [7]
  Starch concentration 4 h: 177 mg/L
  Starch concentration 24 h: 8 mg/L
[1]; 4 h
  Prevention of starch degradation (in words): prevented most of the starch degradation
[1]; 24 h
  Prevention of starch degradation (in words): did not have marked effect
[1]; Zn 10 mg/l (mg Zn2+ per l)
  Starch concentration 4 h: 219 mg/L
  Starch concentration 24 h: 28 mg/L
[2]; 4 h
  Prevention of starch degradation (in words): prevented most of the starch degradation
[2]; 24 h
  Prevention of starch degradation (in words): did not have marked effect
[2]; Zn 10 mg/l (mg Zn2+ per l)
  Starch concentration 4 h: 181 mg/L
  Starch concentration 24 h: 38 mg/L
[4]; 4 h
  Prevention of starch degradation (in words): prevented some of the starch degradation
[4]; 24 h
  Prevention of starch degradation (in words): did not have marked effect
[4]; Zn 10 mg/l (mg Zn2+ per l)
  Starch concentration 4 h: 193 mg/L
  Starch concentration 24 h: 21 mg/L

## O=CCCCC=O [GL, glutaraldehyde]
[4]; 4 h
  Prevention of starch degradation (in words): prevented some of the starch degradation
[4]; 24 h
  Prevention of starch degradation (in words): did not have marked effect
[4]; GL 5 mg/l (active substance)
  Starch concentration 4 h: 85 mg/L
  Starch concentration 24 h: 3 mg/L
[4]; GL 10 mg/l (active substance)
  Starch concentration 4 h: 103 mg/L
  Starch concentration 24 h: 5 mg/L
[4]; GL 20 mg/l (active substance)
  Starch concentration 4 h: 96 mg/L
  Starch concentration 24 h: 4 mg/L
[4]; GL 30 mg/l (active substance)
  Starch concentration 4 h: 93 mg/L
  Starch concentration 24 h: 6 mg/L

## NCl [MCA, monochloramine]
[3]; 4 h
  Prevention of starch degradation (in words): prevented most of the starch degradation
[3]; 24 h
  Prevention of starch degradation (in words): did not have any effect
[3]; MCA 10 mg/l (active chlorine)
  Starch concentration 4 h: 158 mg/L
  Starch concentration 24 h: 5 mg/L
[3]; MCA 20 mg/l (active chlorine)
  Starch concentration 4 h: 189 mg/L
  Starch concentration 24 h: 41 mg/L
